Measurements taken from US11753407B2, “Compounds for treating spinal muscular atrophy” (PTC Therapeutics, Inc., priority 2012, dated 2023).

Experiments:
[1] = system: Smn protein in SMA patient fibroblast cells (GM03813); assay: Smn protein assay in cultured cells (SMN HTRF); type: cell-based, human; details: SMA patient fibroblast cells, 48 hours; for EC1.5x for Smn protein expression: 7-point concentration curve, SMN HTRF, concentration producing 1.5 times Smn protein vs DMSO vehicle control; for maximum fold (Fold) increase of Smn protein: 7-point concentration data, fold relative to vehicle control
Outline: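 Cells were cultured 72 h, seeded at 5,000/well and dosed with seven concentrations (3.16-fold apart) for 48 h. HTRF on lysates, read at 665 and 620 nm, gave blank-corrected ΔF values relative to DMSO. Potency is reported as EC1.5×, efficacy as maximal fold Smn increase.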

[2] = system: SMN2 minigene mRNA (SMN2-A minigene) in HEK293H cells; assay: SMN2 minigene mRNA splicing RT-qPCR assay in cultured cells; type: cell-based, human; details: Homo sapiens, HEK293-H; concentration increasing full length SMN2 mRNA 1.5-fold relative to vehicle-treated cells; HEK293H cells with SMN2-A minigene, 24 hours, 7-point concentration data; read-out: EC1.5x for production of full length SMN2 mRNA
Outline: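 EC1.5× values derive from a 24 h treatment of SMN2-A minigene HEK293H cells and GAPDH-normalized RT-qPCR of exon 7-included minigene mRNA relative to vehicle-treated cells.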

Structure (SMILES) | melting point [°C] | EC1.5x for Smn protein expression [1] | maximum fold (Fold) increase of Smn protein [1] | EC (1.5-fold increase) [2] [µM]
CCc1cc(-c2cc(=O)n3cc(N4CCN[C@H](C)C4)ccc3n2)cn2cc(C)nc12 [Compound 638, 2-(8-ethyl-2-methylimidazo[1,2-a]pyridin-6-yl)-7-[(3R)-3-methylpiperazin-1-yl]-4H-pyrido[1,2-a]pyrimidin-4-one] | 230 to 234 | **** (an EC1.5x≤0.3 μM is indicated by four stars (****)) | ***** (a fold increase >1.65 is indicated by five stars (*****)) | < 0.1
Cc1cn2nc(-c3cc(=O)n4cc(C5CCN(C6CC6)CC5)ccc4n3)cc2c(C)n1 [Compound 641, 7-(1-cyclopropylpiperidin-4-yl)-2-(4,6-dimethylpyrazolo[1,5-a]pyrazin-2-yl)-4H-pyrido[1,2-a]pyrimidin-4-one] | 180 to 183 | **** (an EC1.5x≤0.3 μM is indicated by four stars (****)) | ***** (a fold increase >1.65 is indicated by five stars (*****)) | < 0.1
Cc1cn2nc(-c3cc(=O)n4cc(C5CCN(C6CCC6)CC5)ccc4n3)cc2c(C)n1 [Compound 642, 7-(1-cyclobutylpiperidin-4-yl)-2-(4,6-dimethylpyrazolo[1,5-a]pyrazin-2-yl)-4H-pyrido[1,2-a]pyrimidin-4-one] | 189 to 191 | **** (an EC1.5x≤0.3 μM is indicated by four stars (****)) | ***** (a fold increase >1.65 is indicated by five stars (*****)) | < 0.1
CCc1nc(C)cn2nc(-c3cc(=O)n4cc(N5CCN(C(C)C)[C@H](C)C5)ccc4n3)cc12 [Compound 643, 2-(4-ethyl-6-methylpyrazolo[1,5-a]pyrazin-2-yl)-7-[(3R)-3-methyl-4-(propan-2-yl)piperazin-1-yl]-4H-pyrido[1,2-a]pyrimidin-4-one] | 242 to 244 | *** (an EC1.5× between >0.3 μM and ≤1 μM is indicated by three stars (***)) | ***** (a fold increase >1.65 is indicated by five stars (*****)) | 0.1 to 0.3
CCc1nc(C)cn2nc(-c3cc(=O)n4cc(N5CCN(C6CCC6)[C@H](C)C5)ccc4n3)cc12 [Compound 645, 7-[(3R)-4-cyclobutyl-3-methylpiperazin-1-yl]-2-(4-ethyl-6-methylpyrazolo[1,5-a]pyrazin-2-yl)-4H-pyrido[1,2-a]pyrimidin-4-one] | 261 to 264 | **** (an EC1.5x≤0.3 μM is indicated by four stars (****)) | ***** (a fold increase >1.65 is indicated by five stars (*****)) | < 0.1
CCc1cc(-c2cc(=O)n3cc(N4CCN(CCO)CC4)ccc3n2)cn2cc(C)nc12 [Compound 647, 2-(8-ethyl-2-methylimidazo[1,2-a]pyridin-6-yl)-7-[4-(2-hydroxyethyl)piperazin-1-yl]-4H-pyrido[1,2-a]pyrimidin-4-one] | 248 to 253 | **** (an EC1.5x≤0.3 μM is indicated by four stars (****)) | ***** (a fold increase >1.65 is indicated by five stars (*****)) | < 0.1
CCc1cc(-c2cc(=O)n3cc(N4CCN(C5CCC5)CC4)ccc3n2)cn2cc(C)nc12 [Compound 648, 7-(4-cyclobutylpiperazin-1-yl)-2-(8-ethyl-2-methylimidazo[1,2-a]pyridin-6-yl)-4H-pyrido[1,2-a]pyrimidin-4-one] | 274 to 279 | **** (an EC1.5x≤0.3 μM is indicated by four stars (****)) | ***** (a fold increase >1.65 is indicated by five stars (*****)) | < 0.1

Now from value to molecule, other results behind:

melting point [°C] | Structure (SMILES) | EC1.5x for Smn protein expression [1] | maximum fold (Fold) increase of Smn protein [1] | EC (1.5-fold increase) [2] [µM]
264 to 271 | CCc1cc(-c2cc(=O)n3cc(N4CCNCC4)ccc3n2)cn2cc(C)nc12 [Compound 637, 2-(8-ethyl-2-methylimidazo[1,2-a]pyridin-6-yl)-7-(piperazin-1-yl)-4H-pyrido[1,2-a]pyrimidin-4-one] | **** (an EC1.5x≤0.3 μM is indicated by four stars (****)) | ***** (a fold increase >1.65 is indicated by five stars (*****)) | < 0.1
232 to 236 | CCc1cc(-c2cc(=O)n3cc(N4CCN[C@@H](C)C4)ccc3n2)cn2cc(C)nc12 [Compound 639, 2-(8-ethyl-2-methylimidazo[1,2-a]pyridin-6-yl)-7-[(3S)-3-methylpiperazin-1-yl]-4H-pyrido[1,2-a]pyrimidin-4-one] | **** (an EC1.5x≤0.3 μM is indicated by four stars (****)) | ***** (a fold increase >1.65 is indicated by five stars (*****)) | < 0.1
196 to 198 | Cc1cn2nc(-c3cc(=O)n4cc(C5CCN(C(C)C)CC5)ccc4n3)cc2c(C)n1 [Compound 640, 2-(4,6-dimethylpyrazolo[1,5-a]pyrazin-2-yl)-7-[1-(propan-2-yl)piperidin-4-yl]-4H-pyrido[1,2-a]pyrimidin-4-one] | **** (an EC1.5x≤0.3 μM is indicated by four stars (****)) | **** (a fold increase between >1.5 and ≤1.65 is indicated by four stars (****)) | < 0.1
244 to 247 | CCc1nc(C)cn2nc(-c3cc(=O)n4cc(N5CCN(C6CC6)[C@H](C)C5)ccc4n3)cc12 [Compound 644, 7-[(3R)-4-cyclopropyl-3-methylpiperazin-1-yl]-2-(4-ethyl-6-methylpyrazolo[1,5-a]pyrazin-2-yl)-4H-pyrido[1,2-a]pyrimidin-4-one] | *** (an EC1.5× between >0.3 μM and ≤1 μM is indicated by three stars (***)) | ***** (a fold increase >1.65 is indicated by five stars (*****)) | 0.1 to 0.3
216 to 219 | CCc1nc(C)cn2nc(-c3cc(=O)n4cc(N5CCN(C6COC6)[C@H](C)C5)ccc4n3)cc12 [Compound 646, 2-(4-ethyl-6-methylpyrazolo[1,5-a]pyrazin-2-yl)-7-[(3R)-3-methyl-4-(oxetan-3-yl)piperazin-1-yl]-4H-pyrido[1,2-a]pyrimidin-4-one] | ** (an EC1.5× between >1 μM and ≤3 μM is indicated by two stars (**)) | ***** (a fold increase >1.65 is indicated by five stars (*****)) | 0.3 to 1
217 to 220 | CCc1cc(-c2cc(=O)n3cc(N4CCN(CCO)[C@H](C)C4)ccc3n2)cn2cc(C)nc12 [Compound 649, 2-(8-ethyl-2-methylimidazo[1,2-a]pyridin-6-yl)-7-[(3R)-4-(2-hydroxyethyl)-3-methylpiperazin-1-yl]-4H-pyrido[1,2-a]pyrimidin-4-one] | **** (an EC1.5x≤0.3 μM is indicated by four stars (****)) | ***** (a fold increase >1.65 is indicated by five stars (*****)) | < 0.1
